According to paper PMC9085577, “Discovery of a Potent and Orally Active Dual GPBAR1/CysLT1R Modulator for the Treatment of Metabolic Fatty Liver Disease” (Frontiers in Pharmacology, 2022):
pIC50: −log10 of the molar value.

What was measured:
Human CysLT1 (LTD4) = biological target: T1, Human CysLT1 (LTD4) (Homo sapiens, UniProt Q9Y271); assay: Human CysLT1 (LTD4) antagonist effect cellular functional assay (Ca2+ fluorescence, Eurofins Cerep-Panlabs); assay type: cell-based; conditions: antagonist effect, 0.1 nM LTD4; read-out: CysLT1R IC50
T1 construct: Eurofins Cerep-Panlabs (France), contract assay
T1 sequence (Q9Y271 1-337): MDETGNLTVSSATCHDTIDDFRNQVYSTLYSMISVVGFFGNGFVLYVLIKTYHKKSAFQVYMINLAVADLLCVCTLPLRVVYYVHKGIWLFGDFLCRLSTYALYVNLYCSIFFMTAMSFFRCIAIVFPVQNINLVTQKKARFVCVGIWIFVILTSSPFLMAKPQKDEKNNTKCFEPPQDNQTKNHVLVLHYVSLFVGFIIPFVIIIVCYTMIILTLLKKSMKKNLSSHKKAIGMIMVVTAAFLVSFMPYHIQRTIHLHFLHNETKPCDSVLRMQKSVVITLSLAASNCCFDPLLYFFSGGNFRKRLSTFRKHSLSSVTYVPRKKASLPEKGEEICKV
Description: Human CysLT1 (LTD4) (h) (antagonist effect) Cellular Functional Assay. These assays were performed at Eurofins Cerep-Panlabs (France). The cells were suspended in DMEM buffer (Invitrogen) and then distributed in microplates at a density of 3.104 cells/well. […] Thereafter, the assay plates are positioned in a microplate reader (CellLux, PerkinElmer), which was used for the addition of the test compound or HBSS buffer, then 5 min later, 0.1 nM LTD4 or HBSS buffer (basal control), and measured the changes in fluorescence intensity, which varies proportionally to the free cytosolic Ca^2+-ion concentration.

[1] = In vivo stability: amount of compound 2 in plasma of mice; conditions: 30 mg/kg
Description: The amount of compound 2 in plasma samples of animals treated with compound 2 was evaluated measuring the peak area of the compound at 1, 6, and 24 h after administration. 50 μL of plasma samples were mixed with 200 μL of acetonitrile, vortexed and incubated for 1 h on ice. Samples were then centrifuged for 10 min at 10,000 rpm and supernatants were evaporated to dryness. For LC/MS-MS analysis a QTRAP 6500 System (AB Sciex) equipped with Shimadzu LC-20A LC and AutoSampler was employed. […] The transition 356 →143 was employed for quantification. The following parameters were set: positive mode, DP 120 eV, EP 12 eV, CE 40 eV, CXP 23 V, CUR 30 psi, CAD Medium, IS 5500 V, TEM 350°C, GS1 and GS2 50 psi.
Given the promising results obtained during in vitro pharmacokinetics studies, the profile of disappearance of compound 2 was also evaluated in vivo. Mice were treated with compound 2 and plasma samples withdrawn 1, 6, and 24 h after administration were analyzed by LC-MSMS to evaluate the concentration of compound 2.

[2] = tested on: C57BL/6J male mice fed HFD-F; assay: HFD-F mouse model of NAFLD/NASH (body weight, OGTT, biochemistry, histopathology, adipose tissues); assay type: in vivo; conditions: 30 mg/kg/day by gavage
From the text: C57BL/6J male mice were fed a high fat diet (HFD) containing 59 KJ% fat plus 1% cholesterol, w/o sugar (ssniff ® EF R/M acc. D12330 mod. 22,7 ME/kg) and fructose (HFD-F) in drinking water (42 g/L), or normal chow diet for 61 days. Food intake was estimated as the difference of weight between the offered and the remnant amount of food at 3-days intervals. The food was provided as pressed pellets and the residual spillage was not considered. After 7 days, HFD-F mice were randomized to receive HFD-F alone or in combination with compound 2 (30 mg/kg/day) by gavage until the end of the experiment. Doses of each agent were chosen according to previously published data. Mice were housed under controlled temperature (22°C) and photoperiods (12:12-h light/dark cycle), allowed unrestricted access to standard mouse chow and tap water. The experimental protocol was approved by the Animal Care and Use Committee of the University of Perugia and by the Italian Minister of Health and Istituto Superiore di Sanità (Italy) and was in agreement with the European guidelines for use of experimental animals (permission n. 583/2017-PR). The general health of the animals was monitored daily by the Veterinarian in the animal facility. At the day of sacrifice, fed mice were deeply anesthetized with a mixture of tiletamine hypochloride and zolazepam hypochloride/xylazine at a dose of 50/5 mg/kg and sacrificed before 12 a.m.
Body weight and body length (nose-to-anus or nose–anus length) were measured in anesthetized mice at the time of sacrifice and were used to calculate the body mass index (BMI) (=body weight (g)/length^2 (cm^2)) and the Lee index (=cube root of body weight (g)/nose-to-anus length (cm)).
AST, ALT, total- and HDL-cholesterol, and triglycerides plasmatic levels were quantified using an automated clinical chemistry analyzer (Cobas, Roche).
After 8 weeks of HFD-F mice were fasted overnight and orally administered glucose (1.5 g/kg body weight) for OGTT. The blood glucose concentrations were measured at 0, 15, 30, 60, 90, and 120 min after feeding or injection using a portable glucose meter (Accu-Check Go, Roche).
Temperature of brown adipose tissue (BAT) was recorded through the study using a noninvasive technology. Briefly, mice were maintained at 25°C and the thermal images were taken by a FLIR E6 thermal imaging camera (FLIR System, Wilsonville, Oregon) and the surface temperature quantified by the FLIR Tools.
For histological examination, portions of the right and left liver lobes were fixed in 10% formalin, embedded in paraffin, sectioned and stained with Sirius red and/or Hematoxylin/Eosin (H&E), for morphometric analysis ([Fiorucci et al., 2004]). NASH severity (steatosis, hepatocytes ballooning, lobular inflammation, and portal inflammation) was scored in H&E-stained cross sections using an adapted grading system of human NASH as described previously ([Carino et al., 2017b]).

O=C(O)c1cccc(-c2ccc(OCc3ccc4ccccc4n3)cc2)c1 [Compound 2, 4'-(quinolin-2-ylmethoxy)-[1,1′-biphenyl]-3-carboxylic acid]
pIC50 (Human CysLT1 (LTD4)): 5.25
compound remaining in plasma ([1]; 6 h after administration): considerable percentage of compound 2 is still present
compound remaining in plasma ([1]; 24 h after administration): approximately 20%
ALT plasma levels [2]: reduced
AST plasma levels [2]: reduced
body mass index (BMI) [2]: reduced
eWAT weight [2]: reduced
insulin sensitivity (OGTT) [2]: increased
liver fibrosis and collagen deposition (Sirius red) [2]: robustly attenuated
liver steatosis and hepatocytes ballooning (H&E) [2]: highly effective in reversing these features
liver weight [2]: reversed the effect exerted by the diet
proatherogenic lipid profile [2]: partially reversed
ratio of BAT weight/body weight [2]: reduced
ratio of eWAT weight/body weight [2]: reduced these changes
volume of BAT [2]: reduced
body weight gain ([2]; 54 days): reduced
